The results in this text go back to patent US20260258035A1, “FIVE-MEMBERED AND SIX-MEMBERED NITROGEN-CONTAINING COMPOUND, AND INTERMEDIATE, PREPARATION METHOD AND USE THEREOF” (HANGZHOU SYNRX THERAPEUTICS BIOMEDICAL TECHNOLOGY CO., LTD., priority 2022, published 2026).

The structures appear in SMILES notation.

As usually defined, the IC50 is the midpoint of a concentration-inhibition curve.

One test addresses PARG (Homo sapiens, UniProt Q86W56). Kind of test: Biochemical assay (PARG, TFMU-ADPr substrate).
The subject of a further test is HCC1806. Kind of test: Cell viability assay (CellTiter-Glo). The test is classed as cell-based, Human. The following applies: Homo sapiens, HCC1806, 168 h, HCC1806, 7 days, CellTiter-Glo; read-out: IC50 (nM) in cell viability assay.

Sequence of PARG (Q86W56 whole entry): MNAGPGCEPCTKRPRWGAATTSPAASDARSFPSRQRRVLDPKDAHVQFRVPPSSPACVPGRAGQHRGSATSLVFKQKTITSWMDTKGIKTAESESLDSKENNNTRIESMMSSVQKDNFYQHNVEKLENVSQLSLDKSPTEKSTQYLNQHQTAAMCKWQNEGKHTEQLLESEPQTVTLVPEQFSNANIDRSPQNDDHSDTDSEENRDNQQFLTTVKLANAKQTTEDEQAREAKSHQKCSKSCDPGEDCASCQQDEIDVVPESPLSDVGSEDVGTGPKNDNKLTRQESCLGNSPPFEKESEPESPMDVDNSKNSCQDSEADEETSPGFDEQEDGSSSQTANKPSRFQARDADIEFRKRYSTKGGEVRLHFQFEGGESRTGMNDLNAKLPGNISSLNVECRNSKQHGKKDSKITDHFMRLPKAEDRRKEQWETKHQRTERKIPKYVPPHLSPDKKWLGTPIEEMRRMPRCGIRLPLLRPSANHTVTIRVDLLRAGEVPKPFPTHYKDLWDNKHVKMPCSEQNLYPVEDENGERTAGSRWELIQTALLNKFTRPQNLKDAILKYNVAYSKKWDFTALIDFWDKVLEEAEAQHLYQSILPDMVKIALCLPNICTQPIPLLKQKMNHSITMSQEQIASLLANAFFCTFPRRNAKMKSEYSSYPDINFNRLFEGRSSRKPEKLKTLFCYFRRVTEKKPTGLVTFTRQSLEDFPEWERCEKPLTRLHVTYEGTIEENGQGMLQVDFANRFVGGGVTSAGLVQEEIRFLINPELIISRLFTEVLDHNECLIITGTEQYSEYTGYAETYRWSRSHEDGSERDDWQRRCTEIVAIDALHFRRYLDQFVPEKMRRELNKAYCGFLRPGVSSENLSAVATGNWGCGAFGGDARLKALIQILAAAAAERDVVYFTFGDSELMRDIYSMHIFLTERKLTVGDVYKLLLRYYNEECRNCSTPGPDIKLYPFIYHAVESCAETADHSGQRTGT

As for `COCC1CN(c2cc(S(=O)(=O)NC3(C)COC3)cn3c(-c4nnc(C(F)(F)F)s4)cnc23)CCN1` (stereo not drawn) [Example 360, 8-(3-(methoxymethyl)piperazin-1-yl)-N-(3-methyloxetan-3-yl)-3-(5-(trifluoromethyl)-1,3,4-thiadiazol-2-yl)imidazo[1,2-a]pyridine-6-sulfonamide], the IC50 against PARG (PARG, TFMU-ADPr substrate) amounted to 36.3 nM; in the test with HCC1806, 637 nM.
For `COC1(C(=O)N2CCN(c3cc(S(=O)(=O)NC4(C)CC4)cn4c(-c5nnc(C(F)F)s5)ncc34)CC2)CC1` [Example 196, 3-(5-(difluoromethyl)-1,3,4-thiadiazol-2-yl)-8-(4-(1-methoxycyclopropane-1-carbonyl)piperazin-1-yl)-N-(1-methylcyclopropyl)imidazo[1,5-a]pyridine-6-sulfonamide] the same measures were under 0.1 nM and 6.34 nM.
For `COC1(C(=O)N2CCN(c3cc(S(=O)(=O)NC4(C#N)CC4)cn4c(-c5nnc(C(F)F)s5)ncc34)CC2)CNC1` [Example 289, N-(1-cyanocyclopropyl)-3-(5-(difluoromethyl)-1,3,4-thiadiazol-2-yl)-8-(4-(3-methoxyazetidine-3-carbonyl)piperazin-1-yl)imidazo[1,5-a]pyridine-6-sulfonamide] the same measures were 1.51 nM and 6150 nM.
For `CC1(NS(=O)(=O)c2cc(N3CCOCC3)c3cnc(-c4nnc(C(F)F)s4)n3c2)CC1` [Example 347, 3-(5-(difluoromethyl)-1,3,4-thiadiazol-2-yl)-N-(1-methylcyclopropyl)-8-morpholinoimidazo[1,5-a]pyridine-6-sulfonamide] the same measures were 4.64 nM and 282 nM.
For `C[C@H]1CN(c2cc(S(=O)(=O)NC3(C)COC3)cn3c(-c4nnc(C(F)(F)F)s4)ncc23)C[C@H](C)N1` [Example 184, 8-((3S,5S)-3,5-dimethylpiperazin-1-yl)-N-(3-methyloxetan-3-yl)-3-(5-(trifluoromethyl)-1,3,4-thiadiazol-2-yl)imidazo[1,5-a]pyridine-6-sulfonamide], the IC50 at PARG (PARG, TFMU-ADPr substrate) was 1.15 nM; in the test with HCC1806 it was 18 nM.
For `CC(C)OCC1CN(c2cc(S(=O)(=O)NC3(C)COC3)cn3c(-c4nnc(C(F)F)s4)ncc23)CCN1` (stereo not drawn) [Example 361, 3-(5-(difluoromethyl)-1,3,4-thiadiazol-2-yl)-8-(3-(isopropoxymethyl)piperazin-1-yl)-N-(3-methyloxetan-3-yl)imidazo[1,5-a]pyridine-6-sulfonamide] the same measures were 18.2 nM and 642 nM.
The like results for `CC(C)C(=O)N1CCN(c2cc(S(=O)(=O)NC3CC3)cn3c(-c4nnc(C(F)F)s4)nc(Cl)c23)C[C@H]1C` [Example 131, (R)-1-chloro-N-cyclopropyl-3-(5-(difluoromethyl)-1,3,4-thiadiazol-2-yl)-8-(4-isobutyryl-3-methylpiperazin-1-yl)imidazo[1,5-a]pyridine-6-sulfonamide] were, in that order, 22.9 nM and 1680 nM.
For `CN(C)CCN(C)C(=O)N1CCN(c2cc(S(=O)(=O)NC3(C)COC3)cn3c(-c4nnc(C(F)F)s4)ncc23)CC1` [Example 187, 4-(3-(5-(difluoromethyl)-1,3,4-thiadiazol-2-yl)-6-(N-(3-methyloxetan-3-yl)sulfamoyl)imidazo[1,5-a]pyridin-8-yl)-N-(2-(dimethylamino)ethyl)-N-methylpiperazine-1-carboxamide], the half-maximal inhibitory concentration (IC50) at PARG (PARG, TFMU-ADPr substrate) amounted to 3.37 nM; with HCC1806 it was 874 nM.
The like results for `[2H]C([2H])([2H])OCC1CN(c2cc(S(=O)(=O)NC3(C)COC3)cn3c(-c4nnc(C(F)F)s4)nc(Cl)c23)CCN1` (stereo not drawn) [Example 391, 1-chloro-3-(5-(difluoromethyl)-1,3,4-thiadiazol-2-yl)-8-(3-((methoxy-d3)methyl)piperazin-1-yl)-N-(3-methyloxetan-3-yl)imidazo[1,5-a]pyridine-6-sulfonamide] were, in that order, 5.01 nM and 177 nM.
For `N#CC1(NS(=O)(=O)c2cc(N3CCN(C(=O)C4(N)CC4)CC3)c3cnc(-c4nnc(C(F)(F)F)s4)n3c2)CC1` [Example 274, 8-(4-(1-aminocyclopropane-1-carbonyl)piperazin-1-yl)-N-(1-cyanocyclopropyl)-3-(5-(trifluoromethyl)-1,3,4-thiadiazol-2-yl)imidazo[1,5-a]pyridine-6-sulfonamide] the same measures were 41.7 nM and 700 nM.
Consider `COC1(C(=O)N2CCN(c3cc(S(=O)(=O)NC4(C)CC4)cn4c(-c5nnc(C(F)(F)F)s5)ncc34)CC2)CCC1` [Example 327, 8-(4-(1-methoxycyclobutane-1-carbonyl)piperazin-1-yl)-N-(1-methylcyclopropyl)-3-(5-(trifluoromethyl)-1,3,4-thiadiazol-2-yl)imidazo[1,5-a]pyridine-6-sulfonamide], for which the IC50 at PARG (PARG, TFMU-ADPr substrate) was found to be 0.15 nM; in the test with HCC1806, 6.13 nM.
For `C[C@H]1CN(c2cc(S(=O)(=O)NC3(C)COC3)cn3c(-c4nnc(C(F)F)s4)ncc23)C[C@H](C)O1` [Example 354, 3-(5-(difluoromethyl)-1,3,4-thiadiazol-2-yl)-8-((2S,6S)-2,6-dimethylmorpholino)-N-(3-methyloxetan-3-yl)imidazo[1,5-a]pyridine-6-sulfonamide] the same measures were 0.27 nM and 65.8 nM.
For `N#CC1(NS(=O)(=O)c2cc(N3CCC(c4nnco4)CC3)c3cnc(-c4nnc(C(F)(F)F)s4)n3c2)CC1` [Example 221, 8-(4-(1,3,4-oxadiazol-2-yl)piperidin-1-yl)-N-(1-cyanocyclopropyl)-3-(5-(trifluoromethyl)-1,3,4-thiadiazol-2-yl)imidazo[1,5-a]pyridine-6-sulfonamide] the same measures were 43.7 nM and 150 nM.
The like results for `CC1(NS(=O)(=O)c2cc(N3CCN(C(=O)[C@H]4CC(F)(F)CN4)CC3)c3cnc(-c4nnc(C(F)(F)F)s4)n3c2)CC1` [Example 352, (R)-8-(4-(4,4-difluoropyrrolidine-2-carbonyl)piperazin-1-yl)-N-(1-methylcyclopropyl)-3-(5-(trifluoromethyl)-1,3,4-thiadiazol-2-yl)imidazo[1,5-a]pyridine-6-sulfonamide] were, in that order, 15.3 nM and 561 nM.
For `[2H]C([2H])([2H])OC1(C(=O)N2CCN(c3cc(S(=O)(=O)NC4(C)COC4)cn4c(-c5nnc(C(F)(F)F)s5)nc(Cl)c34)CC2)CC1` [Example 129, 1-chloro-8-(4-(1-(methoxy-d3)cyclopropane-1-carbonyl)piperazin-1-yl)-N-(3-methyloxetan-3-yl)-3-(5-(trifluoromethyl)-1,3,4-thiadiazol-2-yl)imidazo[1,5-a]pyridine-6-sulfonamide], the IC50 against PARG (PARG, TFMU-ADPr substrate) turned out to be 0.16 nM; in the test on HCC1806, 12.7 nM.
For `N#CC1(NS(=O)(=O)c2cc(N3CCN(C(=O)N4CCCC4)CC3)c3cnc(-c4nnc(C(F)(F)F)s4)n3c2)CC1` [Example 229, N-(1-cyanocyclopropyl)-8-(4-(pyrrolidine-1-carbonyl)piperazin-1-yl)-3-(5-(trifluoromethyl)-1,3,4-thiadiazol-2-yl)imidazo[1,5-a]pyridine-6-sulfonamide] the same measures were 3.31 nM and 800 nM.
The like results for `COCC1CN(c2cc(S(=O)(=O)NC3(C)COC3)cn3c(-c4nnc(C(F)(F)F)s4)ncc23)CCN1` (stereo not drawn) [Example 358, 8-(3-(methoxymethyl)piperazin-1-yl)-N-(3-methyloxetan-3-yl)-3-(5-(trifluoromethyl)-1,3,4-thiadiazol-2-yl)imidazo[1,5-a]pyridine-6-sulfonamide] were, in that order, 15.8 nM and 261 nM.
For `C[C@H]1CN(c2cc(S(=O)(=O)NC3(C)COC3)cn3c(-c4nnc(C(F)F)s4)nc(Cl)c23)C[C@H](C)N1` [Example 126, 1-chloro-3-(5-(difluoromethyl)-1,3,4-thiadiazol-2-yl)-8-((3S,5S)-3,5-dimethylpiperazin-1-yl)-N-(3-methyloxetan-3-yl)imidazo[1,5-a]pyridine-6-sulfonamide] the same measures were 5.34 nM and 602 nM.
As for `CC(C)C(=O)N1CCN(c2cc(S(=O)(=O)NC3CC3)cn3c(-c4nnc(C(F)(F)F)s4)nc(Cl)c23)CC1` [Example 121, 1-chloro-N-cyclopropyl-8-(4-isobutyrylpiperazin-1-yl)-3-(5-(trifluoromethyl)-1,3,4-thiadiazol-2-yl)imidazo[1,5-a]pyridine-6-sulfonamide], the IC50 was under 100 nM on PARG (4 nM PARG, 66.2 uM TFMU-ADPr, 3 min at room temperature); 60.1 nM against PARG (PARG, TFMU-ADPr substrate); 2590 nM with HCC1806.
On to `N#CC1(NS(=O)(=O)c2cc(N3CCN(C(=O)C4(OCC(=O)O)CC4)CC3)c3cnc(-c4nnc(C(F)F)s4)n3c2)CC1` [Example 381, 2-(1-(4-(6-(N-(1-cyanocyclopropyl)sulfamoyl)-3-(5-(difluoromethyl)-1,3,4-thiadiazol-2-yl)imidazo[1,5-a]pyridin-8-yl)piperazine-1-carbonyl)cyclopropoxy)acetic acid], for which the IC50 against PARG (PARG, TFMU-ADPr substrate) was 27.1 nM; with HCC1806, 3630 nM.
For `N#CC1(NS(=O)(=O)c2cc(N3CCN(C(=O)C4CC(N)C4)CC3)c3cnc(-c4nnc(C(F)(F)F)s4)n3c2)CC1` (stereo not drawn) [Example 273, 8-(4-(3-aminocyclobutane-1-carbonyl)piperazin-1-yl)-N-(1-cyanocyclopropyl)-3-(5-(trifluoromethyl)-1,3,4-thiadiazol-2-yl)imidazo[1,5-a]pyridine-6-sulfonamide], the IC50 on PARG (PARG, TFMU-ADPr substrate) stood at 1.91 nM; in the test with HCC1806 it was 5940 nM.
The like results for `COC1(C(=O)N2CCN(c3cc(S(=O)(=O)NC4(C#N)CC4)cn4c(-c5nnc(C(F)F)s5)ncc34)CC2)CC1` [Example 192, N-(1-cyanocyclopropyl)-3-(5-(difluoromethyl)-1,3,4-thiadiazol-2-yl)-8-(4-(1-methoxycyclopropane-1-carbonyl)piperazin-1-yl)imidazo[1,5-a]pyridine-6-sulfonamide] were, in that order, 0.83 nM and 30 nM.
